# Test results as given in patent publication US7547548B2, “Method for producing direct in vitro flowering and viable seed from cotyledon, radicle, and leaf explants, and plants produced therefrom” (University of Toledo, priority 2004, dated 2009).
# Columns and labels:
# [1] = tested on: cotyledonary explant; assay: Direct flower bud induction on cotyledon explants on MSB5 medium with growth regulators; format: cell-based, soybean
# Experimental: Preferably before germination, the seeds are washed in running tap water with a drop of soap for 15 mins and sterilized with 70% ethyl alcohol for 1 min followed by a 10 minute treatment with 0.1% mercuric chloride and washed three times for 5 min intervals with sterile distilled water. Six seeds are germinated in each petriplate with MSB5 medium After germination on a MSB5 for a period of time, such as 3 days in the dark at 24±2° C., both the cotyledons are split and the radicle and embryo are removed. The isolated cotyledons from the seed are plated on cotyledon-flowering medium (which is another embodiment of the invention and is described in detail below). The cotyledon-flowering medium preferably comprises a substituted phenylurea cytokinin analog, such as TDZ and a cytokinin such as BAP.
# If desired, the cotyledon may be transformed at this time with any suitable technique known in the art. Preferably the abaxial side of a cotyledon is placed in contact with a cotyledon-flowering medium. Cultures are incubated at 24±2° C. under a 16/8-hour […] photoperiod provided by cool-white fluorescent lights at a quantum flux density of 30 μmol s^−1m^−2.
# Following a passage of time, typically within 3 weeks, flower bud initiation occurs on a cotyledon having been placed on a cotyledon-flowering medium. After about 3 weeks, cotyledons are transferred to MSB5 medium. The flower bud continues to grow on MSB5 medium to develop and produce viable seeds. During this time, cultures are incubated with necessary light-dark photoperiodic conditions to promote growth and to mimic natural growing conditions. Additionally, over time it may be necessary to subculture the explants with fresh MSB5 medium. See example 1 and FIGS, 1a-1d for direct viable-seed producing flower bud initiation on a soybean cotyledon.
# Healthy soybean seeds are hand picked and washed with a few drops of soap (Linquinox, Fischer scientific, Pittsburgh, Pa.) for 10 minutes in running tap water. The seeds are then sterilized in 70% ethyl alcohol for 1 min and treated with 0.1% (w/v) mercuric chloride for 10 min. Sterilized seeds are again washed for three times at five minute intervals with sterilized distilled water, and plated six seed on each petri plate containing 20 ml of MSB5 medium. Three-day-old aseptic seedlings are used as the source material for explant preparation. Six isolated cotyledons are plated on each culture plate in such a way that the abaxial side in contact with the medium. MSB5 medium supplemented with different concentrations of TDZ (0.1, 0.5, 1.0, 2.0 and 5.0 mg/L) either alone, or in combination, with BAP (1.0-4.0 mg/L) are tested for flower induction. The media is augmented with 3% (w/v) sucrose and solidified with 0.56% agar (Phytotech Labs). The pH of the medium is adjusted to 5.8 with 0.1M NaOH or 0.1M HCl before autoclaving at 1.4 kg cm^−2 for 20 min at 121° C. The cultures are incubated in light-dark (16-8 hrs) photoperiodic conditions of cool-white-fluorescent light providing a quantum flux density of […] at 25±2° C. Explants with or without multiple flower buds are subcultured regularly at 20 days interval to fresh medium. Within 15 days of culture initiation, the bulging of cotyledons and induction of deep greenish unorganized structures from the proximal end is noticed.
# [2] = tested on: cotyledon; assay: Shoot, fertile flower and viable seed production from in vitro developed shoots from cotyledon; format: cell-based, soybean; settings: BAP 3.0 mg/L without TDZ
# Experimental: In this method, the isolated cotyledons from the germinated seed are plated on a cotyledon-shoot-flowering medium (which is another embodiment of the invention and is described below). A cotyledon-shoot flowering medium preferably comprises a cytokinin or mixtures thereof, such as BAP or combinations of cytokinins and a substituted phenylurea cytokinin analog such as TDZ or mixtures thereof. If desired, the cotyledon may be transformed at this time with any suitable technique known in the art. Preferably the abaxial side of the cotyledon is placed in contact with a cotyledon-shoot-flowering medium. Cultures are incubated at 24×2° C. under a 16/8-hour dark photoperiod provided by cool-white fluorescent lights at a quantum flux density of 30 μmol s^−1m^−2. Following a passage of time, typically, within four to six weeks, shoot initiation occurs on a cotyledon having been placed on a cotyledon-shoot-flowering medium. The shoot continues to grow and develop a flower bud within two to four weeks after shoot initiation. The explant is maintained on a cotyledon-shoot flowering medium for about 15 days and then transferred to MSB5 medium. Healthy soybean seeds are hand picked and washed with a few drops of soap (Linquinox, Fischer scientific, Pittsburgh, Pa.) for 10 minutes in running tap water. […]
# [3] = tested on: Leaf segments from a petunia; assay: In vitro flowering from leaf explant of petunia; format: cell-based; settings: MS basal medium, TDZ 0.1, 0.5, 1.0, 2.0 and 5.0 mg/L alone; 4 weeks
# Experimental: Leaf segments from a petunia were sterilized using the sterilization procedures described above and placed on MS basal medium supplemented with different concentrations of TDZ (0.1, 0.5, 1.0, 2.0 and 5.0 mg/L) either alone or in combination with BAP (3.0 mg/L) or on a MS basal medium with no hormones. […] A large number of flowers were induced on MS basal medium. FIG. 7 is a photograph showing in vitro flowering in a petunia.
Compound,developmental outcome produced by cotyledon explants ([1]; 3.0 mg/1 BAP),"frequency of shoots, fertile flowers and viable seeds [2]",flower induction and shoot induction ([1]; TDZ 5.0 mg/L),flower production on cotyledonary explants ([1]; TDZ 1.0-2.0 mg/L without BAP),number and frequency of flowers induced ([1]; TDZ below 1.0 mg/L),appearance of induced flowers ([1]; medium containing only 1.0 to 2.0 mg/L TDZ),flower bud induction [3]
"c1ccc(CNc2ncnc3nc[nH]c23)cc1 [BAP, 6-benzylamino purine]",only shoots,high frequency of shoots with low frequency of fertile flowers and viable seeds,,,,,
"O=C(Nc1ccccc1)Nc1cnns1 [TDZ, 1-phenyl-3-(1,2,3-thiadiazol-5-yl)urea]",,,neither flower induction nor shoot induction was noticed,produces flowers on cotyledonary explants,fewer number of flowers and less frequently,"short, vitrified and abnormal",Multiple flower buds were induced
